Reference: patent US20210139467A1 (GLAXOSMITHKLINE INTELLECTUAL PROPERTY DEVELOPMENT LIMITED, priority 2017, published 2021)

Biological target: IDO1 (Homo sapiens, UniProt P14902)
Experiment: IDO1 PBMC RapidFire MS Assay
Type: cell-based
Set-up: stimulated with human interferon-γ (IFN-γ); host or cells: human PBMC stimulated with IFN-gamma and LPS
Conditions: human PBMC stimulated with IFN-γ and LPS; kynurenine detected by mass spectrometry; 2 days; read-out: IDO1 PBMC pIC50 (converted)
Procedure: IDO1 PBMC RapidFire MS Assay
Compounds of the present invention were tested via high-throughput cellular assays utilizing detection of kynurenine via mass spectrometry and cytotoxicity as end-points. For the mass spectrometry and cytotoxicity assays, human peripheral blood mononuclear cells (PBMC) (PB003F; AllCells®, Alameda, Calif.) were stimulated with human interferon-γ (IFN-γ) (Sigma-Aldrich Corporation, St. Louis, Mo.) and lipopolysaccharide from Salmonella minnesota (LPS) (Invivogen, San Diego, Calif.) to induce the expression of indoleamine 2, 3-dioxygenase (IDO1). Compounds with IDO1 inhibitory properties decreased the amount of kynurenine produced by the cells via the tryptophan catabolic pathway. Cellular toxicity due to the effect of compound treatment was measured using CellTiter-Glo® reagent (CTG) (Promega Corporation, Madison, Wis.), which is based on luminescent detection of ATP, an indicator of metabolically active cells.
In preparation for the assays, test compounds were serially diluted 3-fold in DMSO from a typical top concentration of 1 mM or 5 mM and plated at 0.5 μL in 384-well, polystyrene, clear bottom, tissue culture treated plates with lids (Greiner Bio-One, Kremsmünster, Austria) to generate 11-point dose response curves. Low control wells (0% kynurenine or 100% cytotoxicity) contained either 0.5 μL of DMSO in the presence of unstimulated (−IFN-γ/-LPS) PBMCs for the mass spectrometry assay or 0.5 μL of DMSO in the absence of cells for the cytotoxicity assay, and high control wells (100% kynurenine or 0% cytotoxicity) contained 0.5 μL of DMSO in the presence of stimulated (+IFN-γ/+LPS) PBMCs for both the mass spectrometry and cytotoxicity assays.
Frozen stocks of PBMCs were washed and recovered in RPMI 1640 medium (Thermo Fisher Scientific, Inc., Waltham, Mass.) supplemented with 10% v/v heat-inactivated fetal bovine serum (FBS) (Thermo Fisher Scientific, Inc., Waltham, Mass.), and 1× penicillin-streptomycin antibiotic solution (Thermo Fisher Scientific, Inc., Waltham, Mass.). The cells were diluted to 1,000,000 cells/mL in the supplemented RPMI 1640 medium. 50 μL of either the cell suspension, for the mass spectrometry assay, or medium alone, for the cytotoxicity assay, were added to the low control wells, on the previously prepared 384-well compound plates, resulting in 50,000 cells/well or 0 cells/well respectively. IFN-γ and LPS were added to the remaining cell suspension at final concentrations of 100 ng/ml and 50 ng/ml respectively, and 50 μL of the stimulated cells were added to all remaining wells on the 384-well compound plates. The plates, with lids, were then placed in a 37° C., 5% CO2 humidified incubator for 2 days.
Following incubation, the 384-well plates were removed from the incubator and allowed to equilibrate to room temperature for 30 minutes. For the cytotoxicity assay, CellTiter-Glo® was prepared according to the manufacturer's instructions, and 40 μL were added to each plate well. After a twenty minute incubation at room temperature, luminescence was read on an EnVision® Multilabel Reader (PerkinElmer Inc., Waltham, Mass.). For the mass spectrometry assay, 10 μL of supernatant from each well of the compound-treated plates were added to 40 μL of acetonitrile, containing 10 μM of an internal standard for normalization, in 384-well, polypropylene, V-bottom plates (Greiner Bio-One, Kremsmünster, Austria) to extract the organic analytes. Following centrifugation at 2000 rpm for 10 minutes, 10 μL from each well of the acetonitrile extraction plates were added to 90 μL of sterile, distilled H2O in 384-well, polypropylene, V-bottom plates for analysis of kynurenine and the internal standard on the RapidFire 300 (Agilent Technologies, Santa Clara, Calif.) and 4000 QTRAP MS (SCIEX, Framingham, Mass.). MS data were integrated using Agilent Technologies' RapidFire Integrator software, and data were normalized for analysis as a ratio of kynurenine to the internal standard. […]

Chain of IDO1 (P14902 whole entry): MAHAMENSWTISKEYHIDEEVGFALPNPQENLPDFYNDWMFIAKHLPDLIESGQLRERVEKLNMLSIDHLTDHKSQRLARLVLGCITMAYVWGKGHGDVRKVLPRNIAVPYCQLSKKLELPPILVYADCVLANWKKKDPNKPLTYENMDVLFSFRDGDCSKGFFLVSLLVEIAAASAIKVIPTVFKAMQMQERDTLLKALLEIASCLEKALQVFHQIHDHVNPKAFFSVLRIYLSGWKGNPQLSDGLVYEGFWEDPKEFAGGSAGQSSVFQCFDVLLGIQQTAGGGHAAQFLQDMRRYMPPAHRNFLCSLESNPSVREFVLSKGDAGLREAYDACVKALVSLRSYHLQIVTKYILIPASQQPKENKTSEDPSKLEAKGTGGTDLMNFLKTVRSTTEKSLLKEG

Row | SMILES | IC50 [nM]
1 | CC(C)CN(c1ccc(C(C)(C)C(=O)O)cc1Nc1ccc(Cl)cn1)C1CCOCC1 [Example 1, 2-(3-((5-chloropyridin-2-yl)amino)-4-(isobutyl(tetrahydro-2H-pyran-4-yl)amino)phenyl)-2-methylpropanoic acid] | 3.16
2 | CC(C)CN(c1ccc(C(C)(C)C(=O)NS(C)(=O)=O)cc1Nc1ccc(Cl)cn1)C1CCOCC1 [Example 2, 2-(3-((5-chloropyridin-2-yl)amino)-4-(isobutyl(tetrahydro-2H-pyran-4-yl)amino)phenyl)-2-methyl-N-(methylsulfonyl)propanamide] | 1.58
3 | CC(C)CN(c1ccc(C(C)(C)C(=O)NS(=O)(=O)C(F)(F)F)cc1Nc1ccc(Cl)cn1)C1CCOCC1 [Example 3, 2-(3-((5-chloropyridin-2-yl)amino)-4-(isobutyl(tetrahydro-2H-pyran-4-yl)amino)phenyl)-2-methyl-N-((trifluoromethyl)sulfonyl)propanamide] | 20
4 | CC(C)CN(c1ccc(C2(C(=O)NS(C)(=O)=O)CC2)cc1Nc1ccc(Cl)cn1)C1CCOCC1 [Example 4, 1-(3-((5-chloropyridin-2-yl)amino)-4-(isobutyl(tetrahydro-2H-pyran-4-yl)amino)phenyl)-N-(methylsulfonyl)cyclopropane-1-carboxamide] | 0.794
5 | CC(C)CN(c1ccc(C2(C(=O)O)CC2)cc1Nc1ccc(Cl)cn1)C1CCOCC1 [Example 5, 1-(3-((5-chloropyridin-2-yl)amino)-4-(isobutyl(tetrahydro-2H-pyran-4-yl)amino)phenyl)cyclopropane-1-carboxylic acid] | 6.31
6 | CC(C)CN(c1ncc(C(C)(C)C(=O)O)cc1Nc1ccc(Cl)cn1)C1CCOCC1 [Example 6, 2-(5-((5-chloropyridin-2-yl)amino)-6-(isobutyl(tetrahydro-2H-pyran-4-yl)amino)pyridin-3-yl)-2-methylpropanoic acid] | 6.31
7 | CC(C)CN(c1ncc(C(C)(C)C(=O)NS(C)(=O)=O)cc1Nc1ccc(Cl)cn1)C1CCOCC1 [Example 7, 2-(5-((5-chloropyridin-2-yl)amino)-6-(isobutyl(tetrahydro-2H-pyran-4-yl)amino)pyridin-3-yl)-2-methyl-N-(methylsulfonyl)propanamide] | 5.01
8 | CC(C)CN(c1ncc(C(C)(C)C(=O)NS(=O)(=O)C(F)(F)F)cc1Nc1ccc(Cl)cn1)C1CCOCC1 [Example 8, 2-(5-((5-chloropyridin-2-yl)amino)-6-(isobutyl(tetrahydro-2H-pyran-4-yl)amino)pyridin-3-yl)-2-methyl-N-((trifluoromethyl)sulfonyl)propanamide] | 20
9 | CC(C)CN(c1ncc(C2(C(=O)O)CC2)cc1Nc1ccc(Cl)cn1)C1CCOCC1 [Example 9, 1-(5-((5-chloropyridin-2-yl)amino)-6-(isobutyl(tetrahydro-2H-pyran-4-yl)amino)pyridin-3-yl)cyclopropane-1-carboxylic acid] | 7.94
10 | CC(C)CN(c1ncc(C2(C(=O)NS(C)(=O)=O)CC2)cc1Nc1ccc(Cl)cn1)C1CCOCC1 [Example 10, 1-(5-((5-chloropyridin-2-yl)amino)-6-(isobutyl(tetrahydro-2H-pyran-4-yl)amino)pyridin-3-yl)-N-(methylsulfonyl)cyclopropane-1-carboxamide] | 5.01
11 | CC(C)CN(c1ncc(C2(C(=O)NS(=O)(=O)C(F)(F)F)CC2)cc1Nc1ccc(Cl)cn1)C1CCOCC1 [Example 11, 1-(5-((5-chloropyridin-2-yl)amino)-6-(isobutyl(tetrahydro-2H-pyran-4-yl)amino)pyridin-3-yl)-N-((trifluoromethyl)sulfonyl)cyclopropane-1-carboxamide] | 31.6
12 | CC(C)CN(CC(C)C)c1ccc(C(C)(C)C(=O)O)cc1Nc1ccc(Cl)cn1 [Example 12, 2-(3-((5-chloropyridin-2-yl)amino)-4-(diisobutylamino)phenyl)-2-methylpropanoic acid] | 25.1
13 | CC(C)CN(CC(C)C)c1ccc(C(C)(C)C(=O)O)cc1Nc1nc(C(F)(F)F)ns1 [Example 13, 2-(4-(diisobutylamino)-3-((3-(trifluoromethyl)-1,2,4-thiadiazol-5-yl)amino)phenyl)-2-methylpropanoic acid] | 12.6
14 | CC(C)CN(c1ccc(C2(C(=O)O)CC2)cc1Nc1nnc(C2CC2)s1)C1CCOCC1 [Example 14, 1-(3-((5-cyclopropyl-1,3,4-thiadiazol-2-yl)amino)-4-(isobutyl(tetrahydro-2H-pyran-4-yl)amino)phenyl)cyclopropane-1-carboxylic acid] | 15.8
15 | CC(C)CN(c1ccc(C(C)(C)C(=O)O)nc1Nc1ccc(Cl)cn1)C1CCOCC1 [Example 17, 2-(6-((5-chloropyridin-2-yl)amino)-5-(isobutyl(tetrahydro-2H-pyran-4-yl)amino)pyridin-2-yl)-2-methylpropanoic acid] | 6.31
16 | CC(C)CN(c1ccc(C(C)(C)C(=O)NS(C)(=O)=O)nc1Nc1ccc(Cl)cn1)C1CCOCC1 [Example 18, 2-(6-((5-chloropyridin-2-yl)amino)-5-(isobutyl(tetrahydro-2H-pyran-4-yl)amino)pyridin-2-yl)-2-methyl-N-(methylsulfonyl)propanamide] | 3.16
17 | CC(C)CN(c1ccc(C2(C(=O)NS(C)(=O)=O)CC2)cc1Nc1nnc(C2CC2)s1)C1CCOCC1 [Example 19, 1-(3-((5-cyclopropyl-1,3,4-thiadiazol-2-yl)amino)-4-(isobutyl(tetrahydro-2H-pyran-4-yl)amino)phenyl)-N-(methylsulfonyl)cyclopropane-1-carboxamide] | 5.01
18 | COc1ncc(Nc2cc(C3(C(=O)NS(C)(=O)=O)CC3)ccc2N(CC(C)C)C2CCOCC2)cn1 [Example 20, 1-(4-(isobutyl(tetrahydro-2H-pyran-4-yl)amino)-3-((2-methoxypyrimidin-5-yl)amino)phenyl)-N-(methylsulfonyl)cyclopropane-1-carboxamide] | 12.6
19 | COCc1ccc(Nc2cc(C3(C(=O)NS(C)(=O)=O)CC3)ccc2N(CC(C)C)C2CCOCC2)cn1 [Example 21, 1-(4-(isobutyl(tetrahydro-2H-pyran-4-yl)amino)-3-((6-(methoxymethyl)pyridin-3-yl)amino)phenyl)-N-(methylsulfonyl)cyclopropane-1-carboxamide] | 39.8
20 | CC(C)CN(c1ccc(C2(C(=O)NS(C)(=O)=O)CC2)cc1Nc1cnc(C(N)=O)nc1)C1CCOCC1 [Example 22] | > 10000
21 | CC(C)CN(c1ccc(C2(C(=O)NS(C)(=O)=O)CC2)cc1Nc1cnc(C#N)nc1)C1CCOCC1 [Example 23] | 50.1
22 | CC(C)CN(c1cnc(C2(C(=O)O)CC2)cc1Nc1ccc(Cl)cn1)C1CCOCC1 [Example 25] | 50.1
